Experimental data from patent US7932241B2, “Pharmaceutical products comprising bisphosphonates” (Novartis AG, priority 2003, dated 2011).

Test: physchem
Details: pKa values
Method: Each 800 g of this solution (equivalent to 50 mg of zoledronic acid) are titrated with • (a) a solution of 0.500 g/100 mL trisodium citrate dihydrate in water for injection • (b) a solution of 0.500 g/100 mL anhydrous sodium acetate in water for injection • (c) a solution of 0.500 g/100 mL disodium tartrate dihydrate in water for injection • (d) a solution of 0.500 g/100 mL trisodium phosphate hexahydrate in water for injection • (e) a solution of 0.400 g/100 mL sodium hydroxide in water for injection
The pH value after each addition of 200 μL of base solution is recorded potentiometrically.

## O=P(O)(O)C(O)(Cn1ccnc1)P(=O)(O)O [zoledronic acid, 2-(imidazol-1yl)-1-hydroxyethane-1,1-diphosphonic acid]
  pKa: 5.9
